According to ChEMBL document CHEMBL3797079, “Synergistic reduction of HIV-1 infectivity by 5-azacytidine and inhibitors of ribonucleotide reductase” (Bioorg Med Chem, 2016):
Active and inactive are the calls of the source. No cut-off for these calls is given here.

Columns and labels:
[1] = system: Human immunodeficiency virus 1; test: Potentiation of 5-Aza-C-induced antiviral activity against VSV-G pseudotyped HIV-1 NL4-3 infected in human U373-MAGI cells assessed as Nef mutation at 50 uM incubated for 4 hrs preinfection followed by 5-Aza-C addition for 2 hrs preinfection and subsequent viral infection measured at 72 hrs post infection by illumina sequencing method (reference value: 22.6%); type: functional
[2] = system: Human immunodeficiency virus 1; test: Potentiation of 5-Aza-dC-induced antiviral activity against VSV-G pseudotyped HIV-1 NL4-3 infected in human U373-MAGI cells assessed as reduction in U5-gag level at 50 uM after 2 to 72 hrs by qPCR method; type: functional, organism-based
[3] = system: Human immunodeficiency virus 1; test: Potentiation of […] antiviral activity against VSV-G pseudotyped HIV-1 NL4-3 infected in human U373-MAGI cells assessed as Env mutation at 50 uM incubated for 4 hrs preinfection followed by 5-Aza-C addition for 2 hrs preinfection and subsequent viral infection measured at 72 hrs post infection by illumina sequencing method (reference value: 21.4%); type: functional
[4] = system: Human immunodeficiency virus 1; test: Antiviral activity against VSV-G pseudotyped HIV-1 NL4-3 infected in human U373-MAGI cells assessed as increase in frequency of A to T transversion at 50 uM incubated for 4 hrs prior to infection measured at 72 hrs post infection by illumina sequencing method relative to control; type: functional
[5] = system: Human immunodeficiency virus 1; test: Antiviral activity against VSV-G pseudotyped HIV-1 NL4-3 infected in human U373-MAGI cells assessed as Gag mutation at 50 uM incubated for 4 hrs prior to infection measured at 72 hrs post infection by illumina sequencing method (reference value: 18.4%); type: functional
[6] = system: Human immunodeficiency virus 1; test: Potentiation of 5-Aza-C-induced antiviral activity against VSV-G pseudotyped HIV-1 NL4-3 infected in human U373-MAGI cells assessed as decrease in 5-Aza-C EC50 at 50 uM preincubated for 2 hrs followed by 5-Aza-C addition for 2 hrs and subsequent viral infection measured at 72 hrs post infection by flow cytometric analysis relative to control; type: functional
U373-MAGI [7] = test: Reduction in dATP level in human U373-MAGI cells at 200 uM after 6 hrs by LC-MS/MS analysis; type: functional, cell-based
U373-MAGI [8] = test: Reduction in dTTP level in human U373-MAGI cells at 200 uM after 6 hrs by LC-MS/MS analysis; type: functional, cell-based
[9] = system: Human immunodeficiency virus 1; test: Antiviral activity against VSV-G pseudotyped HIV-1 NL4-3 infected in human U373-MAGI cells assessed as reduction in gag level at 50 uM measured at 12 to 72 hrs post infection by qPCR method; type: functional, organism-based
U373-MAGI [10] = test: Reduction in 5-aza-dCTP level in human U373-MAGI cells at 50 uM preincubated for 2 hrs followed by 5-aza-C addition measured after 4 hrs by LC-MS/MS analysis; type: functional, cell-based
U373-MAGI [11] = test: Increase in 5-aza-dCTP/dCTP ratio in human U373-MAGI cells at 200 uM preincubated for 2 hrs followed by 5-aza-C addition measured after 4 hrs by LC-MS/MS analysis relative to 5-aza-C; type: functional, cell-based
U373-MAGI [12] = test: Reduction in 5-aza-dCTP level in human U373-MAGI cells at 200 uM preincubated for 2 hrs followed by 5-aza-C addition measured after 4 hrs by LC-MS/MS analysis; type: functional, cell-based
[13] = system: Human immunodeficiency virus 1; test: Antiviral activity against VSV-G pseudotyped HIV-1 NL4-3 infected in human U373-MAGI cells assessed as increase in frequency of T to G transversion at 50 uM incubated for 4 hrs prior to infection measured at 72 hrs post infection by illumina sequencing method relative to control; type: functional
U373-MAGI [14] = test: Reduction in dRGU-TP level in human U373-MAGI cells at 50 uM preincubated for 2 hrs followed by 5-aza-C addition measured after 4 hrs by LC-MS/MS analysis; type: functional, cell-based
U373-MAGI [15] = test: Effect on dRGU-TP level in human U373-MAGI cells at 50 uM preincubated for 2 hrs followed by 5-aza-dC addition measured after 4 hrs by LC-MS/MS analysis; type: functional, cell-based
U373-MAGI [16] = test: Increase in 5-aza-dCTP/dCTP ratio in human U373-MAGI cells at 50 uM preincubated for 2 hrs followed by 5-aza-dC addition measured after 4 hrs by LC-MS/MS analysis relative to 5-aza-dC; type: functional, cell-based
[17] = Cytotoxicity against human U373-MAGI cells at 50 uM measured at 72 hrs by Celltiter-Glo luminescent cell viability assay; type: cell-based
U373-MAGI [18] = test: Reduction in dRGU-TP level in human U373-MAGI cells at 200 uM preincubated for 2 hrs followed by 5-aza-C addition measured after 4 hrs by LC-MS/MS analysis; type: functional, cell-based
[19] = system: Human immunodeficiency virus 1; test: Potentiation of 5-Aza-C-induced antiviral activity against VSV-G pseudotyped HIV-1 NL4-3 infected in human U373-MAGI cells assessed as Gag mutation at 50 uM incubated for 4 hrs preinfection followed by 5-Aza-C addition for 2 hrs preinfection and subsequent viral infection measured at 72 hrs post infection by illumina sequencing method (reference value: 18.4%); type: functional
U373-MAGI [20] = test: Reduction in dCTP level in human U373-MAGI cells at 50 uM after 6 hrs by LC-MS/MS analysis; type: functional, cell-based
[21] = system: Human immunodeficiency virus 1; test: Antiviral activity against VSV-G pseudotyped HIV-1 NL4-3 infected in human U373-MAGI cells assessed as increase in frequency of […] transversion at 50 uM incubated for 4 hrs prior to infection measured at 72 hrs post infection by illumina sequencing method relative to control; type: functional
U373-MAGI [22] = test: Reduction in dCTP level in human U373-MAGI cells at 200 uM preincubated for 2 hrs followed by 5-aza-dC addition measured after 4 hrs by LC-MS/MS analysis relative to 5-aza-dC; type: functional, cell-based
U373-MAGI [23] = test: Reduction in dCTP level in human U373-MAGI cells at 200 uM preincubated for 2 hrs followed by 5-aza-C addition measured after 4 hrs by LC-MS/MS analysis relative to 5-aza-C; type: functional, cell-based
[24] = system: Human immunodeficiency virus 1; test: Potentiation of 5-Aza-dC-induced antiviral activity against VSV-G pseudotyped HIV-1 NL4-3 infected in human U373-MAGI cells assessed as increase in total mutation frequency at 50 uM incubated for 4 hrs preinfection followed by 5-Aza-C addition for 2 hrs preinfection and subsequent viral infection measured at 72 hrs post infection by illumina sequencing method relative to control; type: functional, organism-based
[25] = system: Human immunodeficiency virus 1; test: Potentiation of 5-Aza-C-induced antiviral activity against VSV-G pseudotyped HIV-1 NL4-3 infected in human U373-MAGI cells assessed as Pol mutation at 50 uM incubated for 4 hrs preinfection followed by 5-Aza-C addition for 2 hrs preinfection and subsequent viral infection measured at 72 hrs post infection by illumina sequencing method (reference value: 18.5%); type: functional
[26] = system: Human immunodeficiency virus 1; test: Antiviral activity against VSV-G pseudotyped HIV-1 NL4-3 infected in human U373-MAGI cells assessed as increase in frequency of A to C transversion at 50 uM incubated for 4 hrs prior to infection measured at 72 hrs post infection by illumina sequencing method relative to control; type: functional
U373-MAGI [27] = test: Effect on 5-aza-dCTP level in human U373-MAGI cells at 200 uM preincubated for 2 hrs followed by 5-aza-dC addition measured after 4 hrs by LC-MS/MS analysis; type: functional, cell-based

Oc1ccc(/C=C/c2cc(O)cc(O)c2)cc1 [RESVERATROL]
Activity [1]: 17.1%
Activity [2]: Active
Activity [3]: 20.1%
fold change (FC) [4]: 1.8
Activity [5]: 16.6%
fold change (FC) [6]: 2.5
Activity (U373-MAGI [7]): Active
Activity (U373-MAGI [8]): Active
Activity [9]: inactive
Activity (U373-MAGI [10]): inactive
Activity (U373-MAGI [11]): inactive
Activity (U373-MAGI [12]): Active
fold change (FC) [13]: 3.2
Activity (U373-MAGI [14]): inactive
Activity (U373-MAGI [15]): inactive
Activity (U373-MAGI [16]): Active
Activity [17]: Non-toxic
Activity (U373-MAGI [18]): Active
Activity [19]: 15.5%
Activity (U373-MAGI [20]): inactive
fold change (FC) [21]: 2
Activity (U373-MAGI [22]): Active
Activity (U373-MAGI [23]): Active
Activity [24]: inactive
Activity [25]: 21.9%
fold change (FC) [26]: 1.8
Activity (U373-MAGI [27]): inactive
